The source of these data is ChEMBL document CHEMBL5380814, “Targeting Receptor-Interacting Protein Kinase 1 by Novel Benzothiazole Derivatives: Treatment of Acute Lung Injury through the Necroptosis Pathway” (J Med Chem, 2023).

The test system of experiment [1] is HT-29. The experiment can be described thus: Anti-necroptotic activity in human HT-29 cells assessed as inhibition of human TNFalpha/Smac mimetic/Z-VAD-FMK induced necroptosis preincubated with compound for 16 to 24 hrs followed by TSZ stimulation for 12 hrs measured by cell-titre glo luminescent cell viability assay. Type of experiment: functional, cell-based.

Experiment [2] has as its system HT-29. The experiment can be described thus: Anti-necroptotic activity in human HT-29 cells assessed as protection against human TNFalpha/Smac mimetic/Z-VAD-FMK induced necroptosis preincubated with compound at 50 nM for 16 to 24 hrs followed by TSZ stimulation for 12 hrs measured by cell-titre glo luminescent cell viability assay relative to control. Type of experiment: functional. The note with it: time 28-36 hrs.

For the next experiment, the system named is U-937. Kind of experiment: Anti-necroptotic activity in human U-937 cells assessed as protection against human TNFalpha/Smac mimetic/Z-VAD-FMK induced necroptosis preincubated with compound upto 50 nM for 16 to 24 hrs followed by TSZ stimulation for 12 hrs measured by cell-titre glo luminescent cell viability assay. Format: functional, cell-based. The following applies: time 28-36 hrs.

The test system of experiment [3] is HT-29. The experiment can be described thus: Anti-necroptotic activity in human HT-29 cells assessed as protection against human TNFalpha/Smac mimetic induced necroptosis preincubated with compound upto 10 uM for 16 to 24 hrs followed by TS stimulation for 36 hrs measured by cell-titre glo luminescent cell viability assay. Format: functional, cell-based. The note with it: time 52-60 hrs.

The target of experiment [4] is T1, Receptor-interacting serine/threonine-protein kinase 3 (Homo sapiens, UniProt Q9Y572). Kind of experiment: Inhibition of RIPK3 phosphorylation in TSZ-induced human HT-29 cells assessed as blocking of TSZ-induced necrosome formation at 0.5 uM pretreated with compound for 6 hrs followed by TSZ stimulation for 6 hrs measured by Western analysis. Format: cell-based. The following applies: time 12.0 hrs.

Experiment [5] deals with T2, Mixed lineage kinase domain-like protein (Homo sapiens) (UniProt Q8NB16).
T2 sequence (whole entry): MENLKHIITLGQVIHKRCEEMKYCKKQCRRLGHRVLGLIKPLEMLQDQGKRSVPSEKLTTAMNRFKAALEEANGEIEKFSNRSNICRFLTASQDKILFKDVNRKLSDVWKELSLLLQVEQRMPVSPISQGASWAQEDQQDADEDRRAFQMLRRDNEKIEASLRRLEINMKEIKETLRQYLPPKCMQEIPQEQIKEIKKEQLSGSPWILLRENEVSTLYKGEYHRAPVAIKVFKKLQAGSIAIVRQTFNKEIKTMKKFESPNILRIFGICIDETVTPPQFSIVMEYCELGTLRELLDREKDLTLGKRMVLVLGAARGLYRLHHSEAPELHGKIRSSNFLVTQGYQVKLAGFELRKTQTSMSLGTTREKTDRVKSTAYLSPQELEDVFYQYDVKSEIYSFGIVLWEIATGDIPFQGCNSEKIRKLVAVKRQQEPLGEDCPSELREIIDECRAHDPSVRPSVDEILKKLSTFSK
Kind of experiment: Inhibition of MLKLphosphorylation in TSZ-induced human HT-29 cells assessed as blocking of TSZ-induced necrosome formation upto 1 uM pretreated with compound for 6 hrs followed by TSZ stimulation for 6 hrs measured by Western analysis. Type of experiment: cell-based. The following applies: time 12.0 hrs.

In experiment [6] the target is T1, Receptor-interacting serine/threonine-protein kinase 3. The experiment can be described thus: Inhibition of RIPK3 phosphorylation in TSZ-induced human HT-29 cells assessed as blocking of TSZ-induced necrosome formation at 1 uM pretreated with compound for 2 to 6 hrs followed by TSZ stimulation for 6 hrs measured by Western analysis. Type of experiment: cell-based. The note with it: time 8-12 hrs.

In experiment [7] the test system is Mus musculus. Kind of experiment: In vivo anti-inflammatory activity in NNK induced induced C57BL/6J ALI mouse model assessed as less bleeding point in lung pretreated at 25 to 100 mg/kg, ip for 1 hr followed by NNK administration by HE staining analysis. Type of experiment: functional, organism-based. The note with it: dose 25-100 mg/kg.
Experiment [8] has as its system Mus musculus. Kind of experiment: In vivo anti-inflammatory activity in NNK induced induced C57BL/6J ALI mouse model assessed as decrease in wet lung weight pretreated at 25 to 100 mg/kg, ip for 1 hr followed by NNK administration relative to disease model. Type of experiment: functional, organism-based. The note with it: dose 25-100 mg/kg.
For experiment [9], the system named is Mus musculus. Kind of experiment: In vivo anti-inflammatory activity in NNK induced induced C57BL/6J ALI mouse model assessed as lung injury score pretreated at 25 mg/kg, ip for 1 hr followed by NNK administration relative to disease model (reference value: 5.7 +/- 0.5). Format: functional.
Experiment [10] concerns Mus musculus. The experiment can be described thus: In vivo anti-inflammatory activity in NNK induced induced C57BL/6J ALI mouse model assessed as lung injury score pretreated at 100 mg/kg, ip for 1 hr followed by NNK administration relative to disease model (reference value: 5.7 +/- 0.5). Format: functional.
The test system of experiment [11] is Mus musculus. The experiment can be described thus: In vivo anti-inflammatory activity in NNK induced induced C57BL/6J ALI mouse model assessed as decrease in bronchoalveolar lavage fluid (BALF) TNF-alpha level pretreated at 25 to 100 mg/kg, ip for 1 hr followed by NNK administration. Format: functional, organism-based. The note with it: dose 25-100 mg/kg.

Structures are written as SMILES. Active and inactive are the calls of the source. The calls are words filed in the database; no cut-off is given here.

T1 sequence (Q9Y572 whole entry, looked up): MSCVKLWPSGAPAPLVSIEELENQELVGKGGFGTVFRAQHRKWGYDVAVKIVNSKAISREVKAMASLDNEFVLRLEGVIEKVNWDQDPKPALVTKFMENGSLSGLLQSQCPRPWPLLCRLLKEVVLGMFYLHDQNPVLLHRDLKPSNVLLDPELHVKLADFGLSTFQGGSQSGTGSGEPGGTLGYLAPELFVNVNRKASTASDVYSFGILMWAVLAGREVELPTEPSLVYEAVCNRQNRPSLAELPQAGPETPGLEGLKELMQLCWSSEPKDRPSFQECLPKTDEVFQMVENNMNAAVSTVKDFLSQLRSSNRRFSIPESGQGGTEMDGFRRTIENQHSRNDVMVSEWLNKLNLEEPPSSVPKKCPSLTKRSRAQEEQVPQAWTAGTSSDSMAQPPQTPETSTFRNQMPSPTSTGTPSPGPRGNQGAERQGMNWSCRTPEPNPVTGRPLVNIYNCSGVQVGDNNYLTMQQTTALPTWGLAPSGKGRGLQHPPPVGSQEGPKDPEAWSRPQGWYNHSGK

The EC50 is the concentration needed to bring the measured effect to its halfway point. For `CCS(=O)(=O)NC1CCC(C(=O)Nc2nc3cc(F)c(Oc4ccc(F)c(NC(=O)Cc5cccc(C(F)(F)F)c5)c4)cc3s2)CC1` (configuration not stated), in the experiment with HT-29 [1], the EC50 was found to be 0.0224 µM. Also, the results for the Activity with HT-29 [2], in the experiment on Mus musculus [9] and with Mus musculus [10] were 100%, 4.3 and 2.7, respectively. Moreover, the outcome in the experiment with U-937 and in the experiment on HT-29 [3] was inactive. Moreover, the inhibition entry in [4], in experiment [5] and in experiment [6] was “Active” each time. The outcome in the experiment on Mus musculus [7], in the experiment on Mus musculus [8] and in the experiment on Mus musculus [11] was Active.
